Results on 25 molecules are retold here after patent US20220220103A1, “CYCLIN-DEPENDENT KINASE INHIBITORS” (SPV THERAPEUTICS INC., priority 2018, published 2022).

The structures appear in SMILES notation. Where “and” joins values, the source holds several entries; their conditions need not be identical. Identical values can stand only once. Like-named read-outs stand apart in the source and are kept apart here. A value given as a limit tells only on which side of the number the result lay.

For one assay, the target named is CDK4-CYCLIND1 (Homo sapiens, UniProt P11802). Kind of assay: Microfluidic LabChip inhibition assay, CDK4-CYCLIND1. To be noted: ATP 200 μM. In kind it is biochemical. On the procedure: (§1) The reaction was terminated by the addition of EDTA. The plates were analyzed using a Caliper LabChip 3000.
CDK4-CYCLIND1, sequence (P11802 whole entry): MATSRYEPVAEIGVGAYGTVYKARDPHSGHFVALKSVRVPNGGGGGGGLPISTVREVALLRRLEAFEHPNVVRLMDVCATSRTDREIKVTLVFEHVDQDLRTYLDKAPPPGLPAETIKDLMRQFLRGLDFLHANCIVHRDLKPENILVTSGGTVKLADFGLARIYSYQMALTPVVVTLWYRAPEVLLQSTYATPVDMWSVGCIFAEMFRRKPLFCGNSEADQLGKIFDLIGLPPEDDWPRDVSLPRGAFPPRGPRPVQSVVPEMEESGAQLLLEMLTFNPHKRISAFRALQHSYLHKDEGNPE
CDK4-CYCLIND1, sequence (P24385 whole entry partner): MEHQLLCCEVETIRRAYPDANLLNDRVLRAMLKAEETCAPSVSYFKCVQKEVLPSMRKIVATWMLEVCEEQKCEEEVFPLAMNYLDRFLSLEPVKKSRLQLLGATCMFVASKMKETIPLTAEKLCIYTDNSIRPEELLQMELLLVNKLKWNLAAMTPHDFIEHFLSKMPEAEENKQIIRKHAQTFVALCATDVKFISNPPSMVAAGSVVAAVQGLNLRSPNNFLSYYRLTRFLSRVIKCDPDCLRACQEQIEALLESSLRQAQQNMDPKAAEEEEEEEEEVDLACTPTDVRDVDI
(§2) Additional inhibition assays were performed as described above.

For another assay, the target named is CDK6-CYCLIND3 (Homo sapiens, UniProt Q00534). Kind of assay: Microfluidic LabChip inhibition assay, CDK6-CYCLIND3. The assay is classed as biochemical. To be noted: ATP 300 μM. Here is the method: as §1, §2
CDK6-CYCLIND3, sequence (Q00534 whole entry): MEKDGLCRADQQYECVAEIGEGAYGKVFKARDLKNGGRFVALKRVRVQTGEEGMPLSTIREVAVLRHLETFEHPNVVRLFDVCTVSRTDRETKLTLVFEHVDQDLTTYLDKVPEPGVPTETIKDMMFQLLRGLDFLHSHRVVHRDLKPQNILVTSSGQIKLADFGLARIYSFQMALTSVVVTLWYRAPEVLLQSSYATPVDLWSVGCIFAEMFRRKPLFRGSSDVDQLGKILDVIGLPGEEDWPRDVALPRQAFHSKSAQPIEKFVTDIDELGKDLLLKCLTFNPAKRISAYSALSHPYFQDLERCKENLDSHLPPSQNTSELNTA
CDK6-CYCLIND3, sequence (P30281 whole entry partner): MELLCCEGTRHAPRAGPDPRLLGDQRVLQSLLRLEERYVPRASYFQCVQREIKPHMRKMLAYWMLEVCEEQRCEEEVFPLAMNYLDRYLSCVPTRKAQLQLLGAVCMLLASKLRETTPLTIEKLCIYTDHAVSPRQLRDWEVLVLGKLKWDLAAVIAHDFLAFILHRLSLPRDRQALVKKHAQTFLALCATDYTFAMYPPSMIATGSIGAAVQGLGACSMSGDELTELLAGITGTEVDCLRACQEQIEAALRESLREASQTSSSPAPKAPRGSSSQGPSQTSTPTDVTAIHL
Where [1] appears, read: Table 2, 25° C., read-out: CDK4 IC50.
Setting [2] is: Table 2, 25° C., read-out: CDK6 IC50.
The mark [3] stands for this setting: Table 3a, second values in parentheses on the line below, not explained, read-out: CDK4 CyclinD1 IC50.
The mark [4] stands for this setting: Table 3b, second values in parentheses on the line below, not explained, read-out: CDK4 CyclinD1 IC50.
The mark [5] stands for this setting: Table 3a, read-out: CDK6 CyclinD3 IC50.

By IC50 is commonly meant the concentration that gives 50% inhibition. Regarding `N#Cc1cc2cnc(Nc3ccc(OCCN4CCCC4)nc3)nc2n(C2CCCC2)c1=O` [Compound B28, 8-cyclopentyl-7-oxo-2-((6-(2-(pyrrolidin-1-yl)ethoxy)pyridin-3-yl)amino)-7,8-dihydropyrido[2,3-d]pyrimidine-6-carbonitrile], the IC50 on CDK4-CYCLIND1 (setting [1]) was 45 nM; at CDK6-CYCLIND3 (setting [2]), 120 nM.
On the same counts, the results for `CC(C)N1CCN(c2cnc(Nc3ncc4cc(C#N)c(=O)n(C5CCCC5)c4n3)cc2C(F)(F)F)CC1` [Compound B29, 8-cyclopentyl-2-((5-(4-isopropylpiperazin-1-yl)-4-(trifluoromethyl)pyridin-2-yl)amino)-7-oxo-7,8-dihydropyrido[2,3-d]pyrimidine-6-carbonitrile] are over 30000 nM and over 30000 nM.
`N#Cc1cc2cnc(Nc3ccc(OCCN4CCCC4)c(F)c3)nc2n(C2CCCC2)c1=O` [Compound B30]: the figures for the IC50 at CDK4-CYCLIND1 (setting [1]) and at CDK6-CYCLIND3 (setting [2]) were 7.62 nM and 24.2 nM, respectively.
Regarding `N#Cc1cc2cnc(Nc3ccc(N4CC5(CNC5)C4)cc3)nc2n(C2CCCC2)c1=O` [Compound B31, 2-((4-(2,6-diazaspiro[3.3]heptan-2-yl)phenyl)amino)-8-cyclopentyl-7-oxo-7,8-dihydropyrido[2,3-d]pyrimidine-6-carbonitrile], the IC50 on CDK4-CYCLIND1 (setting [1]) worked out at 2.41 nM; at CDK6-CYCLIND3 (setting [2]), 8.29 nM.
The corresponding values for `N#Cc1cc2cnc(Nc3ccc(N4CC5(CNC5)C4)cn3)nc2n(C2CCCC2)c1=O` [Compound B32, 2-((5-(2,6-diazaspiro[3.3]heptan-2-yl)pyridin-2-yl)amino)-8-cyclopentyl-7-oxo-7,8-dihydropyrido[2,3-d]pyrimidine-6-carbonitrile] are 21.1 nM and 33.4 nM.
`N#Cc1cc2cnc(Nc3ccc(N4CC5(CNC5)C4)nc3)nc2n(C2CCCC2)c1=O` [Compound B33, 2-((6-(2,6-diazaspiro[3.3]heptan-2-yl)pyridin-3-yl)amino)-8-cyclopentyl-7-oxo-7,8-dihydropyrido[2,3-d]pyrimidine-6-carbonitrile]: the IC50 at CDK4-CYCLIND1 (setting [1]) came to 5.97 nM; on CDK6-CYCLIND3 (setting [2]), 14.4 nM.
With `N#Cc1cc2cnc(Nc3ccc(N4CC5(CNC5)C4)c(F)c3)nc2n(C2CCCC2)c1=O` [Compound B34, 8-cyclopentyl-2-((3-fluoro-4-(2,6-diazaspiro[3.3]heptan-2-yl)phenyl)amino)-7-oxo-7,8-dihydropyrido[2,3-d]pyrimidine-6-carbonitrile], the values for the IC50 at CDK4-CYCLIND1 (setting [1]) and at CDK6-CYCLIND3 (setting [2]) were 1.21 nM and 3.89 nM, respectively.
In the case of `CN(C)[C@H]1CCN(C(=O)c2ccc(Nc3ncc4cc(C#N)c(=O)n(C5CCCC5)c4n3)cc2)C1` [Compound B35, (S)-8-cyclopentyl-2-((4-(3-(dimethylamino)pyrrolidine-1-carbonyl)phenyl)amino)-7-oxo-7,8-dihydropyrido[2,3-d]pyrimidine-6-carbonitrile], the IC50 at CDK4-CYCLIND1 (setting [1]) is 3.84 nM; on CDK6-CYCLIND3 (setting [2]), 22.3 nM.
As for `CN(C)[C@H]1CCN(C(=O)c2ccc(Nc3ncc4cc(C#N)c(=O)n(C5CCCC5)c4n3)cc2F)C1` [Compound B36, (S)-8-cyclopentyl-2-((4-(3-(dimethylamino)pyrrolidine-1-carbonyl)-3-fluorophenyl)amino)-7-oxo-7,8-dihydropyrido[2,3-d]pyrimidine-6-carbonitrile], the IC50 on CDK4-CYCLIND1 (setting [1]) turned out to be 13.2 nM; on CDK6-CYCLIND3 (setting [2]), 73.1 nM.
On the same counts, the results for `CCN1CCN(Cc2ccc(Nc3ncc4cc(C#N)c(=O)n(C5CCCC5)c4n3)nc2)CC1` [Compound B37, 8-cyclopentyl-2-((5-((4-ethylpiperazin-1-yl)methyl)pyridin-2-yl)amino)-7-oxo-7,8-dihydropyrido[2,3-d]pyrimidine-6-carbonitrile] are 46.3 nM and 93.6 nM.
Turning to `N#Cc1cc2cnc(Nc3ccc(N4CCC(N5CCOCC5)CC4)cc3)nc2n(C2CCCC2)c1=O` [Compound B38, 8-cyclopentyl-2-((4-(4-morpholinopiperidin-1-yl)phenyl)amino)-7-oxo-7,8-dihydropyrido[2,3-d]pyrimidine-6-carbonitrile], the IC50 on CDK4-CYCLIND1 (setting [1]) was determined as 9.81 nM; on CDK6-CYCLIND3 (setting [2]), 29.8 nM.
As for `N#Cc1cc2cnc(Nc3ccc(N4CCC(N5CCOCC5)CC4)cn3)nc2n(C2CCCC2)c1=O` [Compound B39, 8-cyclopentyl-2-((5-(4-morpholinopiperidin-1-yl)pyridin-2-yl)amino)-7-oxo-7,8-dihydropyrido[2,3-d]pyrimidine-6-carbonitrile], the IC50 came to 9.27 nM on CDK4-CYCLIND1 (setting [1]) and 27.9 nM on CDK6-CYCLIND3 (setting [2]).
As for `N#Cc1cc2cnc(Nc3ccc(N4CCC(N5CCOCC5)CC4)nc3)nc2n(C2CCCC2)c1=O` [Compound B40, 8-cyclopentyl-2-((6-(4-morpholinopiperidin-1-yl)pyridin-3-yl)amino)-7-oxo-7,8-dihydropyrido[2,3-d]pyrimidine-6-carbonitrile], the IC50 at CDK4-CYCLIND1 (setting [1]) came out at 11.3 nM; at CDK6-CYCLIND3 (setting [2]), 30.8 nM.
The corresponding values for `N#Cc1cc2cnc(Nc3ccc(N4CCC(N5CCOCC5)CC4)c(F)c3)nc2n(C2CCCC2)c1=O` [Compound B41, 8-cyclopentyl-2-((3-fluoro-4-(4-morpholinopiperidin-1-yl)phenyl)amino)-7-oxo-7,8-dihydropyrido[2,3-d]pyrimidine-6-carbonitrile] are 7.88 nM and 27.9 nM.
With `CN(C)[C@H]1CCN(c2ccc(Nc3ncc4cc(C#N)c(=O)n(C5CCCC5)c4n3)cc2)C1` [Compound B42, (S)-8-cyclopentyl-2-((4-(3-(dimethylamino)pyrrolidin-1-yl)phenyl)amino)-7-oxo-7,8-dihydropyrido[2,3-d]pyrimidine-6-carbonitrile], the results for the IC50 at CDK4-CYCLIND1 (setting [1]) and on CDK6-CYCLIND3 (setting [2]) were 2.31 nM and 6.01 nM, respectively.
On the same counts, the results for `CN(C)[C@H]1CCN(c2ccc(Nc3ncc4cc(C#N)c(=O)n(C5CCCC5)c4n3)nc2)C1` [Compound B43, (S)-8-cyclopentyl-2-((5-(3-(dimethylamino)pyrrolidin-1-yl)pyridin-2-yl)amino)-7-oxo-7,8-dihydropyrido[2,3-d]pyrimidine-6-carbonitrile] are 46.9 nM and 61.5 nM.
`CN(C)[C@H]1CCN(c2ccc(Nc3ncc4cc(C#N)c(=O)n(C5CCCC5)c4n3)cn2)C1` [Compound B44, (S)-8-cyclopentyl-2-((6-(3-(dimethylamino)pyrrolidin-1-yl)pyridin-3-yl)amino)-7-oxo-7,8-dihydropyrido[2,3-d]pyrimidine-6-carbonitrile]: the half-maximal inhibitory concentration (IC50) was found to be 10.6 nM on CDK4-CYCLIND1 (setting [1]) and 30.9 nM at CDK6-CYCLIND3 (setting [2]).
Regarding `CN(C)[C@H]1CCN(c2ccc(Nc3ncc4cc(C#N)c(=O)n(C5CCCC5)c4n3)cc2F)C1` [Compound B45, (S)-8-cyclopentyl-2-((4-(3-(dimethylamino)pyrrolidin-1-yl)-3-fluorophenyl)amino)-7-oxo-7,8-dihydropyrido[2,3-d]pyrimidine-6-carbonitrile], the figures for the IC50 on CDK4-CYCLIND1 (setting [1]) and on CDK6-CYCLIND3 (setting [2]) were 3.68 nM and 9.86 nM, respectively.
For `CC(=O)c1c(C)c2cnc(Nc3ccc(OCCN(C)C)nc3)nc2n(C2CCCC2)c1=O` [Compound B63, 6-acetyl-8-cyclopentyl-2-((6-(2-(dimethylamino)ethoxy)pyridin-3-yl)amino)-5-methylpyrido[2,3-d]pyrimidin-7(8H)-one], the IC50 on CDK4-CYCLIND1 (setting [3]) is 8.64 nM and 6.36 nM; on CDK4-CYCLIND1 (setting [4]), 8.64 nM and 6.36 nM; at CDK6-CYCLIND3 (setting [5]), 37 nM.
Consider `CC(=O)c1c(C)c2cnc(Nc3ccc(N(C)CCN(C)C)cc3)nc2n(C2CCCC2)c1=O` [Compound B64, 6-acetyl-8-cyclopentyl-2-((4-((2-(dimethylamino)ethyl)(methyl)amino)phenyl)amino)-5-methylpyrido[2,3-d]pyrimidin-7(8H)-one], for which the IC50 on CDK4-CYCLIND1 (setting [3]) was found to be 8.22 nM; at CDK4-CYCLIND1 (setting [4]) it was 8.22 nM; on CDK6-CYCLIND3 (setting [5]), 76.1 nM.
`CC(=O)c1c(C)c2cnc(Nc3ccc(OCCN(C)C)cn3)nc2n(C2CCCC2)c1=O` [Compound B65, 6-acetyl-8-cyclopentyl-2-((5-(2-(dimethylamino)ethoxy)pyridin-2-yl)amino)-5-methylpyrido[2,3-d]pyrimidin-7(8H)-one]: the IC50 on CDK4-CYCLIND1 (setting [3]) amounted to 1.47 nM; on CDK4-CYCLIND1 (setting [4]), 1.47 nM; on CDK6-CYCLIND3 (setting [5]), 46.7 nM.
In the case of `CC(=O)c1c(C)c2cnc(Nc3ccc(OCCN4CCCCC4)cn3)nc2n(C2CCCC2)c1=O` [Compound B67, 6-acetyl-8-cyclopentyl-5-methyl-2-((5-(2-(piperidin-1-yl)ethoxy)pyridin-2-yl)amino)pyrido[2,3-d]pyrimidin-7(8H)-one], the IC50 at CDK4-CYCLIND1 (setting [3]) was found to be 48.8 nM; at CDK4-CYCLIND1 (setting [4]), 48.8 nM; on CDK6-CYCLIND3 (setting [5]), 298 nM.
On to `CN1CCN(c2ccc(Nc3ncc4cc(C(=O)N(C)C)c(=O)n(C5CCCC5)c4n3)cc2F)CC1` [Compound B139, 8-cyclopentyl-2-((3-fluoro-4-(4-methylpiperazin-1-yl)phenyl)amino)-N,N-dimethyl-7-oxo-7,8-dihydropyrido[2,3-d]pyrimidine-6-carboxamide], for which the IC50 at CDK4-CYCLIND1 (setting [3]) came to 7.4 nM; at CDK4-CYCLIND1 (setting [4]) it was 7.4 nM; on CDK6-CYCLIND3 (setting [5]), 76.2 nM.
For `CN1CCN(c2ccc(Nc3ncc4cc(C(=O)N(C)C)c(=O)n(C5CCCC5)c4n3)nc2)CC1` [Compound B141, 8-cyclopentyl-N,N-dimethyl-2-((5-(4-methylpiperazin-1-yl)pyridin-2-yl)amino)-7-oxo-7,8-dihydropyrido[2,3-d]pyrimidine-6-carboxamide], the IC50 was 715 nM on CDK4-CYCLIND1 (setting [3]), 715 nM at CDK4-CYCLIND1 (setting [4]) and 1990 nM at CDK6-CYCLIND3 (setting [5]).
For `CNC(=O)c1cc2cnc(Nc3ccc(N4CCN(C)CC4)cc3)nc2n(C2CCCC2)c1=O` [Compound B143, 8-cyclopentyl-N-methyl-2-((4-(4-methylpiperazin-1-yl)phenyl)amino)-7-oxo-7,8-dihydropyrido[2,3-d]pyrimidine-6-carboxamide], the figures for the IC50 on CDK4-CYCLIND1 (setting [3]) and at CDK6-CYCLIND3 (setting [5]) were 17 nM and 134 nM, respectively.
